Measurements published in patent publication EP1143251B9, “METHOD AND BIOSENSOR FOR DETECTING ANTIGEN” (priority 1999, dated 2000).

How the values were obtained:
[1] = titer based on the toxicity of 2,3,7,8-TCDD (receptor binding, allylhydrocarbon hydroxylase inducing ability, toxic effect); cited from earlier work
[2] = test system: anti-dioxin monoclonal antibody; settings: Catalog No. PDI-Dioxin-30, IgG1, host mouse; cited from earlier work
[3] = test system: anti-dioxin monoclonal antibody; experiment: surface plasmon resonance (BIAcore 2000) competitive method with HRP-2,3,7,8-TCDD on an antibody-fixed CM5 sensor chip; format: binding, mouse; settings: average of the four cells
Source text: An anti-dioxin monoclonal antibody was fixed to a sensor chip by the aminocoupling method using BIAcore (registered trademark) 2000.
As a sensor chip to which the antibody was not fixed, a sensor chip (commercial name CM5) available from BIAcore company was used. The metallic thin film 14 is composed of gold, and its thickness is 50 nm. The fixing body 18 is carboxymethyldextran having no crosslinked structure, and its thickness is 100 nm.
As the anti-dioxin monoclonal antibody, Catalog No. PDI-Dioxin-30 (Research Diagnostics, Inc., Pleasant Hill Road, Flanders, New Jersey, USA) was used. As the host, mouse was used. This anti-dioxin monoclonal antibody contains 10 mg IgG1 in 3.125 ml (3.2 mg/ml), 0.2M PBS, pH 7.2, and 0.05% sodium azide.
First, BIAcore's sensor chip CM5 was set in BIAcore (registered trademark) 2000. Then, a mixed solution of N-ethyl-N'-(3-dimethylaminopropyl)carbodiimide hydrochloride (EDC) and N-hydroxysuccinimide (NHS) was injected into BIAcore (registered trademark) 2000 to activate the sensor chip CM5.
The anti-dioxin monoclonal antibody (1,000 ppm) was centrifuged to replace the solvent. Finally, the antibody was dissolved in 100 µl of 10 mM acetic acid environment solution. The resulting solution in an amount of 50 µl was injected into BIAcore (registered trademark) 2000 at a rate of 5 µl/min to fix the anti-dioxin monoclonal antibody onto the surface of the sensor chip. […]
Using the sensor chip obtained in Example 1, dioxins were detected by the competitive method. […]
The diluted 2,3,7,8-TCDD solution of each concentration was mixed with 10 ppm HRP-2,3,7,8-TCDD in BIAcore. […] A change in the disappearance angle due to the binding of 2,3,7,8-TCDD itself to the antibody is too small to be measured by SPR. […]
Then, the mixture was injected (3 µl/min) into BIAcore 2000, and an SPR signal was measured to determined the disappearance angle. That is, polarized light with a wavelength of 760 nm was projected, and the intensity of reflected light was measured, with the angle of incidence of incident light being varied. […]

Clc1cc2c(oc3c(Cl)c(Cl)c(Cl)c(Cl)c32)c(Cl)c1Cl [1,2,3,4,6,7,8-Hepta CDF]
TEF [1]: 0.1

Clc1c(Cl)c(Cl)c2c(oc3c(Cl)c(Cl)c(Cl)c(Cl)c32)c1Cl [Octa CDF]
TEF [1]: 0.001

Clc1cc(Cl)c2c(c1)Oc1c(Cl)cc(Cl)cc1O2 [1,3,6,8-Tetra CDD]
TEF [1]: 0

Clc1cc2oc3c(Cl)c(Cl)c(Cl)c(Cl)c3c2cc1Cl [1,2,3,4,7,8-Hexa CDF]
TEF [1]: 0.1

Clc1ccc2c(c1)Oc1ccccc1O2 [2-CDD]
reactivity of the anti-dioxin monoclonal antibody [2]: 0.3%

Clc1cc2c(cc1Cl)Oc1cc(Cl)c(Cl)cc1O2 [2,3,7,8-TCDD]
ΔRU Average ([3]; Dioxin concentration 3.8 ppb): 234.75 RU | ΔRU Average ([3]; Dioxin concentration 7.6ppb): 197.9 RU | ΔRU Average ([3]; Dioxin concentration 76 ppb): 135.9 RU | reactivity of the anti-dioxin monoclonal antibody [2]: 100% | TEF [1]: 1

Clc1cc2c(c(Cl)c1Cl)Oc1c(cc(Cl)c(Cl)c1Cl)O2 [1,2,3,7,8,9-Hexa CDD]
TEF [1]: 0.1

Clc1cc(Cl)c2c(c1)Oc1cc(Cl)cc(Cl)c1O2 [1,3,7,9-Tetra CDD]
TEF [1]: 0

Clc1cc2oc3cc(Cl)c(Cl)c(Cl)c3c2c(Cl)c1Cl [1,2,3,7,8,9-Hexa CDF]
TEF [1]: 0.1

Clc1cc2c(cc1Cl)Oc1c(cc(Cl)c(Cl)c1Cl)O2 [1,2,3,7,8-Penta CDD]
TEF [1]: 0.5

Clc1cc2c(c(Cl)c1Cl)Oc1c(Cl)c(Cl)c(Cl)c(Cl)c1O2 [1,2,3,4,6,7,8-Hepta CDD]
TEF [1]: 0.01

Clc1cc2c(cc1Cl)Oc1c(Cl)c(Cl)c(Cl)c(Cl)c1O2 [1,2,3,4,7,8-Hexa CDD]
TEF [1]: 0.1

Clc1c(Cl)c(Cl)c2c(c1Cl)Oc1c(Cl)c(Cl)c(Cl)c(Cl)c1O2 [Octa CDD]
TEF [1]: 0.001

Clc1cc2c(oc3c(Cl)c(Cl)c(Cl)cc32)c(Cl)c1Cl [2,3,4,6,7,8-Hexa CDF]
TEF [1]: 0.1

Clc1cc2oc3cc(Cl)c(Cl)c(Cl)c3c2cc1Cl [1,2,3,7,8-Penta CDF]
TEF [1]: 0.05

Clc1cc2c(cc1Cl)Oc1ccccc1O2 [2,3-DCDD]
reactivity of the anti-dioxin monoclonal antibody [2]: 2.2%

Clc1cc(Cl)c2c(c1Cl)Oc1ccccc1O2 [1,2,4-TriCDD]
reactivity of the anti-dioxin monoclonal antibody [2]: <1.0%

Clc1cc2c(c(Cl)c1Cl)Oc1cc(Cl)c(Cl)c(Cl)c1O2 [1,2,3,6,7,8-Hexa CDD]
TEF [1]: 0.1

Clc1cc2c(oc3cc(Cl)c(Cl)c(Cl)c32)c(Cl)c1Cl [1,2,3,6,7,8-Hexa CDF]
TEF [1]: 0.1

Clc1cc(Cl)c2c(c1)oc1c(Cl)cc(Cl)cc12 [1,3,6,8-Tetra CDF]
TEF [1]: 0

Clc1cc2oc3c(Cl)c(Cl)c(Cl)c(Cl)c3c2c(Cl)c1Cl [1,2,3,4,7,8,9-Hepta CDF]
TEF [1]: 0.1

Clc1ccc2c(c1)Oc1cc(Cl)c(Cl)cc1O2 [2,3,7-TriCDD]
reactivity of the anti-dioxin monoclonal antibody [2]: <20%

Clc1cc2oc3cc(Cl)c(Cl)cc3c2cc1Cl [2,3,7,8-TCDF]
reactivity of the anti-dioxin monoclonal antibody [2]: 4.6% | TEF [1]: 0.1
